Measured values: patent US12582622B2, “Sodium oxybate to treat idiopathic hypersomnia” (priority 2020, dated 2026)

Key:
narcolepsy = settings: in vivo; cited from earlier work
[1] = tested on: subjects with Idiopathic Hypersomnia; assay: Study of the efficacy of sodium oxybate (Xyrem) oral solution: ESS, PGIc, IHSS (Example 2); assay type: in vivo, human; settings: randomized withdrawal portion of the trial
Text: (§1) This is a study of the efficacy and safety of sodium oxybate (Xyrem) oral solution in subjects with Idiopathic Hypersomnia. The study design is analogous to the study described in Example 1.
During the Open-label Treatment Titration and Optimization Period subjects will initiate sodium oxybate as either as a once or twice nightly dosing regimen at the discretion of the investigator. The dosing regimen of sodium oxybate may be adjusted as described in Example 1 until an optimally effective and tolerable dose regimen is established. The aim of the sodium oxybate dose titration and optimization is to maximize efficacy (reduction in IH symptoms, e.g., EDS, sleep inertia, and long sleep duration) while ensuring adequate nocturnal sleep and minimizing risk associated with safety and tolerability.
Subjects who have reached an optimized dosing regimen, and who have completed the Open label Treatment Titration and Optimization Period, will then enter the 2-week Stable Dose Period as described in Example 1.
Subjects who meet the randomization criteria at the end of the Stable Dose Period will be randomized to receive sodium oxybate at the stable dose and regimen or placebo at a volume and regimen equivalent to the sodium oxybate dose and regimen for 2 weeks. Randomization will be stratified by the subject's use of stimulant agent at baseline per the following baseline medication groups: 1) subjects not currently taking sodium oxybate but are taking a stimulant or alerting agent; or 2) subjects not currently taking sodium oxybate or a stimulant or alerting agent.
(§2) Subjects who complete the Double-blind Randomized Withdrawal Period will enter a 24-week Open-label Safety Extension Period as described in Example 1. A Safety Follow-up visit will occur 2 weeks after the Open-label Safety Extension Period (completion of study).

[2] = tested on: subjects with Idiopathic Hypersomnia; assay: Safety of sodium oxybate (Xyrem) oral solution (Example 2); set-up: species or system human; settings: in vivo
Text: as §1, §2

For O=C(O)CCCO [GHB, gamma-hydroxybutyrate], the REM latency (narcolepsy) is given as “decreases”, the “signs and symptoms of narcolepsy (daytime sleepiness, cataplexy, sleep paralysis, hypnagogic hallucinations)” value (narcolepsy) is given as “substantially reduces” and the sleep apnea (narcolepsy) is given as “reduces”. The “total sleep time and REM sleep” value (narcolepsy) was “increases”.
With O=C(O)CCCO [sodium oxybate] the “ESS score during randomized withdrawal” value [1] was “clinically meaningful maintenance of efficacy”, the “IHSS during randomized withdrawal” value [1] was “clinically meaningful maintenance of efficacy” and the “change in PGIc scores during randomized withdrawal” value [1] was “clinically meaningful maintenance of efficacy”. The overall safety profile [2] was “consistent with that previously reported for sodium oxybate (Xyrem)”.
